“And” between values parts separate entries of the source, which are not always exact repeats. Equal entries are not always repeated. Toxic doses and inconclusive results are not listed. The calls were made as follows: active = survival T/C of 150% or more; inactive = T/C below 125% in these data.
Tested on: P388 leukemia ip, CD2F1 mice, survival T/C
Assay: NCI In Vivo Anticancer Drug Screen. Data for tumor model P388 Leukemia (intraperitoneal) in CD2F1 (CDF1) mice
Conditions: endpoint: median survival time, higher = longer survival
How it was run: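 Mice carrying the transplanted tumor received test compound or vehicle. Survival was recorded in each group, and the value is the treated-group measurement divided by that of the vehicle-treated control group.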

[1] = dose: 25.0 mg/kg/injection, schedule: Q01DX009 (ip), vehicle: other
[2] = dose: 50.0 mg/kg/injection, schedule: Q01DX009 (ip), vehicle: other
[3] = dose: 100.0 mg/kg/injection, schedule: Q01DX009 (ip), vehicle: other
[4] = dose: 60.0 mg/kg/injection, schedule: Q01DX005 (ip), vehicle: saline with Tween-80
[5] = dose: 120.0 mg/kg/injection, schedule: Q01DX005 (ip), vehicle: saline with Tween-80
[6] = dose: 240.0 mg/kg/injection, schedule: Q01DX005 (ip), vehicle: saline with Tween-80
[7] = dose: 50.0 mg/kg/injection, schedule: Q01DX005 (ip), vehicle: saline with Tween-80
[8] = dose: 100.0 mg/kg/injection, schedule: Q01DX005 (ip), vehicle: saline with Tween-80
[9] = dose: 200.0 mg/kg/injection, schedule: Q01DX005 (ip), vehicle: saline with Tween-80
[10] = dose: 50.0 mg/kg/injection, schedule: Q01DX005 (ip), vehicle: Klucel (hydroxypropylcellulose) (HPC)
[11] = dose: 100.0 mg/kg/injection, schedule: Q01DX005 (ip), vehicle: Klucel (hydroxypropylcellulose) (HPC)
[12] = dose: 200.0 mg/kg/injection, schedule: Q01DX005 (ip), vehicle: Klucel (hydroxypropylcellulose) (HPC)
[13] = dose: 25.0 mg/kg/injection, schedule: Q01DX009 (ip), vehicle: Klucel (hydroxypropylcellulose) (HPC)
[14] = dose: 50.0 mg/kg/injection, schedule: Q01DX009 (ip), vehicle: Klucel (hydroxypropylcellulose) (HPC)
[15] = dose: 100.0 mg/kg/injection, schedule: Q01DX009 (ip), vehicle: Klucel (hydroxypropylcellulose) (HPC)
[16] = dose: 0.78 mg/kg/injection, schedule: Q01DX009 (ip), vehicle: saline
[17] = dose: 1.56 mg/kg/injection, schedule: Q01DX009 (ip), vehicle: saline
[18] = dose: 3.12 mg/kg/injection, schedule: Q01DX009 (ip), vehicle: saline
[19] = dose: 60.0 mg/kg/injection, schedule: Q01DX005 (ip), vehicle: saline
[20] = dose: 120.0 mg/kg/injection, schedule: Q01DX005 (ip), vehicle: saline
[21] = dose: 100.0 mg/kg/injection, schedule: Q04DX003 (ip), vehicle: saline with Tween-80
[22] = dose: 200.0 mg/kg/injection, schedule: Q04DX003 (ip), vehicle: saline with Tween-80
[23] = dose: 50.0 mg/kg/injection, schedule: Q01DX009 (ip), vehicle: saline with Tween-80
[24] = dose: 100.0 mg/kg/injection, schedule: Q01DX009 (ip), vehicle: saline with Tween-80
[25] = dose: 200.0 mg/kg/injection, schedule: Q01DX009 (ip), vehicle: Klucel (hydroxypropylcellulose) (HPC)
[26] = dose: 25.0 mg/kg/injection, schedule: Q01DX009 (ip), vehicle: saline with Tween-80
[27] = dose: 200.0 mg/kg/injection, schedule: Q01DX009 (ip), vehicle: saline with Tween-80

Measured: T/C

O=C(NC(CCS(=O)(=O)F)C(=O)OCc1ccccc1)OCc1ccccc1 (stereo not drawn)
inactive: dose: 12.5 mg/kg/injection, schedule: Q01DX009 (ip), vehicle: other 102 % of control | [1] 97 % of control | [2] 100 % of control | [3] 102 % of control | dose: 200.0 mg/kg/injection, schedule: Q01DX009 (ip), vehicle: other 105 % of control

[Cu+2].[Cu+2].c1ccc2c(c1)-c1nc-2nc2[n-]c(nc3nc(nc4[n-]c(n1)c1ccccc41)-c1ccccc1-3)c1cc3c4nc5nc(nc6[n-]c(nc7nc(nc([n-]4)c3cc21)-c1ccccc1-7)c1ccccc61)-c1ccccc1-5
inactive: [4] 100 % of control | [5] 89 % of control | [6] 95 % of control

O=C(O)c1ccc(/C=C2\COc3ccccc3C2=O)cc1
inactive: [4] 103 % of control | [5] 112 % of control | [6] 112 % of control

O=[N+]([O-])c1ccc(N2c3ccccc3SC23CCCC3)c([N+](=O)[O-])c1
inactive: [7] 100 % of control | [8] 100 % of control | [9] 99 % of control

COc1ccc(C(=O)C(CCC(=O)/C=C/c2ccccc2)S(C)(=O)=O)cc1 (stereo not drawn)
inactive: [10] 105 % of control | [11] 99 % of control | [12] 87 % of control

CC1CN(/N=C/c2ccc([N+](=O)[O-])o2)C(=O)O1 (stereo not drawn)
inactive: dose: 6.25 mg/kg/injection, schedule: Q01DX009 (ip), vehicle: Klucel (hydroxypropylcellulose) (HPC) 108 % of control | dose: 12.5 mg/kg/injection, schedule: Q01DX009 (ip), vehicle: Klucel (hydroxypropylcellulose) (HPC) 106 % of control | [13] 103 % of control | [14] 103 % of control

CCC/C(C)=C(/C#N)CC
inactive: [13] 101 % of control | [14] 101 % of control | [15] 101 % of control

CC[CH](C)[Sn](=[O])[CH](C)CC (stereo not drawn)
inactive: [16] 97 % of control | [17] 105 % of control | [18] 113 % of control

N#CCc1csc2ccccc12
inactive: [10] 117 % of control | [11] 115 % of control | [12] 112 % of control

CC1=C(CO)C(=O)OC(C(C)C2CCC3C4CC5OC56C(O)C(N5CC5)=CC(=O)C6(C)C4CCC23C)C1 (stereo not drawn)
inactive: dose: 5.0 mg/kg/injection, schedule: Q01DX005 (ip), vehicle: Klucel (hydroxypropylcellulose) (HPC) 110 % of control | dose: 10.0 mg/kg/injection, schedule: Q01DX005 (ip), vehicle: Klucel (hydroxypropylcellulose) (HPC) 120 % of control and 91 % of control and 97 % of control | dose: 20.0 mg/kg/injection, schedule: Q01DX005 (ip), vehicle: Klucel (hydroxypropylcellulose) (HPC) 103 % of control and 104 % of control and 123 % of control | dose: 40.0 mg/kg/injection, schedule: Q01DX005 (ip), vehicle: Klucel (hydroxypropylcellulose) (HPC) 103 % of control and 106 % of control and 123 % of control | dose: 80.0 mg/kg/injection, schedule: Q01DX005 (ip), vehicle: Klucel (hydroxypropylcellulose) (HPC) 108 % of control and 109 % of control | dose: 160.0 mg/kg/injection, schedule: Q01DX005 (ip), vehicle: Klucel (hydroxypropylcellulose) (HPC) 105 % of control

CC(=O)N(C(C)=O)N(C(C)=O)c1cc2ccccc2cn1
inactive: [7] 88 % of control | [8] 91 % of control

O=C1CS[C@@H]2C(=O)CCCC2C1 (stereo partly drawn)
inactive: [7] 98 % of control | [8] 98 % of control | [9] 92 % of control

CC(NC(=O)C(Cc1ccccc1)NC(=O)c1ccc[n+](Cc2ccccc2)c1)C(N)=O (stereo not drawn)
inactive: [19] 97 % of control | [20] 93 % of control

Clc1cccc(Cl)c1C(Cl)Cl
inactive: [21] 95 % of control | [22] 109 % of control | dose: 400.0 mg/kg/injection, schedule: Q04DX003 (ip), vehicle: saline with Tween-80 100 % of control

CCCCC(CC)C(=O)OC(C)CN(CC(C)OC(=O)C(CC)CCCC)C(=O)C(C)OC(=O)C(CC)CCCC (stereo not drawn)
inactive: [7] 103 % of control | [8] 96 % of control | [9] 103 % of control

CCC[CH2][Sn]([CH2]CCN(C)C)([CH2]CCN(C)C)[CH2]CCN(C)C
inactive: [23] 100 % of control | [24] 107 % of control

O=C(O)CSc1nc2ccc(N3C(=O)C4C5C=CC(C5)C4C3=O)cc2s1 (stereo not drawn)
inactive: [14] 90 % of control | [15] 105 % of control | [25] 99 % of control

O=C(NC(Cc1ccccc1)C(=O)O)c1ccc([N+](=O)[O-])cc1 (stereo not drawn)
inactive: [1] 97 % of control | [2] 89 % of control | [3] 104 % of control

O=C(O)CCOCCCOCCC(=O)O
inactive: dose: 50.0 mg/kg/injection, schedule: Q01DX005 (ip), vehicle: saline 95 % of control | dose: 100.0 mg/kg/injection, schedule: Q01DX005 (ip), vehicle: saline 98 % of control | dose: 200.0 mg/kg/injection, schedule: Q01DX005 (ip), vehicle: saline 100 % of control

Cc1[nH]c(N)nc(=S)c1CCCOc1ccc([N+](=O)[O-])cc1
inactive: [4] 99 % of control | [5] 93 % of control | [6] 97 % of control

O=C=C=O
inactive: dose: 1:2.0 dilution, schedule: Q01DX001 (ip), vehicle: none 102 % of control | dose: 1:4.0 dilution, schedule: Q01DX001 (ip), vehicle: none 104 % of control | dose: 1:8.0 dilution, schedule: Q01DX001 (ip), vehicle: none 99 % of control

CCN(CC)CCSc1nnc(-c2cc(OC)c(OC)c(OC)c2)o1
inactive: dose: 50.0 mg/kg/injection, schedule: Q04DX003 (ip), vehicle: water 100 % of control | dose: 100.0 mg/kg/injection, schedule: Q04DX003 (ip), vehicle: water 103 % of control

Nc1nnc2cccc(Cl)n12
inactive: dose: 100.0 mg/kg/injection, schedule: Q01DX001 (ip), vehicle: Klucel (hydroxypropylcellulose) (HPC) 98 % of control | dose: 200.0 mg/kg/injection, schedule: Q01DX001 (ip), vehicle: Klucel (hydroxypropylcellulose) (HPC) 96 % of control | dose: 400.0 mg/kg/injection, schedule: Q01DX001 (ip), vehicle: Klucel (hydroxypropylcellulose) (HPC) 99 % of control

Nc1ccc(N2CCSCC2)nc1
inactive: dose: 50.0 mg/kg/injection, schedule: Q01DX009 (ip), vehicle: saline 104 % of control | dose: 100.0 mg/kg/injection, schedule: Q01DX009 (ip), vehicle: saline 101 % of control | dose: 200.0 mg/kg/injection, schedule: Q01DX009 (ip), vehicle: saline 96 % of control

CCOC(=O)c1ccc(NC(=O)Nc2cnccn2)cc1
inactive: dose: 12.5 mg/kg/injection, schedule: Q01DX009 (ip), vehicle: saline with Tween-80 92 % of control | [26] 93 % of control | [23] 86 % of control and 91 % of control | [24] 95 % of control | [27] 90 % of control

CC(C)=C1[C@@H]2C=C[C@@H]1[C@H]1C(=O)[C@@H]3O[C@]3(CO)C(=O)[C@H]12
inactive: [7] 106 % of control | [8] 101 % of control | [9] 108 % of control

NC(CCC(=O)NC(CSCNC(=O)Nc1ccc(Cl)cc1)C(=O)NCC(=O)O)C(=O)O (stereo not drawn)
inactive: [19] 97 % of control | [20] 97 % of control

CCCCCCCCCCCCCCC[N+]1(CC)CCCC1
inactive: [16] 108 % of control | [17] 114 % of control | [18] 114 % of control

C/C(=N\N=c1/cc(Cl)n(C)c(=O)n1C)c1ccc(Cl)cc1
inactive: [14] 102 % of control | [15] 99 % of control

COC(=O)C1CC(=O)N(C)c2sc(C)c(C)c2C1=O (stereo not drawn)
inactive: [26] 103 % of control | [23] 93 % of control | [24] 94 % of control | [21] 97 % of control | [27] 94 % of control | [22] 93 % of control

CCCCCCC(=O)/C=C/c1cc(Cl)cc(Cl)c1O
inactive: [14] 105 % of control | [15] 91 % of control | [25] 101 % of control
